Measurements reported in US20050009060A1, “Multiplexed multitarget screening method” (priority 2003, published 2005).

Target: 5HT2A receptor (Homo sapiens, UniProt P28223)
Test: Ca2+i mobilization by autosampling flow cytometry, single cell threshold analysis, Indo-1-loaded cells
Assay type: cell-based
Details: 1 uM serotonin; percent of cells with Ca2+i at least 2 SD above mean of buffer control
From the text: Left panel: distribution of Ca^2+i levels measured by intensity ratio, and determination of threshold level as shown by arrow.
A rotated histogram plot of such a response, and of the basal population, is shown in the left panel of FIG. 22, where the Ca^2+i level is shown on the x-axis and the number of cells attaining each Ca^2+i level is on the y-axis. […] The threshold is set by calculating the mean of the Ca^2+i level in the buffer control sample and calculating one (1) or more standard deviations above the mean. The choice to use one or more standard deviations is based on minimizing the error between buffer control samples and fully activated positive control samples. […] A threshold level at two standard deviations above the mean Ca^2+i level is shown by the arrow. Because the single cell flow cytometry as provided herein can analyze samples rapidly, about 100 to 200 cells, or more, can be analyzed in a short period. […] Data analysis is implemented in an automated software algorithm that automatically calculates Chi Square values along with the response frequency for each sample.

Chain of 5HT2A receptor (P28223 whole entry): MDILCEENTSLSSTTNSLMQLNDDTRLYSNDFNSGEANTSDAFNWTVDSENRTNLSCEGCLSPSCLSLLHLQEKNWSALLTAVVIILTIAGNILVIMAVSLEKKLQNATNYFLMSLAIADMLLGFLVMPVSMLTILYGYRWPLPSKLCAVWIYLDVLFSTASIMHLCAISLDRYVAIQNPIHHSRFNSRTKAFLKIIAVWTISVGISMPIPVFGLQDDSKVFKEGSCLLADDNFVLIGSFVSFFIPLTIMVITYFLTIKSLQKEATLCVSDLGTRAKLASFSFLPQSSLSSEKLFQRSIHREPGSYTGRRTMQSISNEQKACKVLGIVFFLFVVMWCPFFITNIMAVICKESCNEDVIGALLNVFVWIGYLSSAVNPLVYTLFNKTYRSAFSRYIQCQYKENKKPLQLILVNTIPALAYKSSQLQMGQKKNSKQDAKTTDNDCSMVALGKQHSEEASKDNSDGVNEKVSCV

NCCc1c[nH]c2ccc(O)cc12 [serotonin]
signal to baseline ratio (stimulated to unstimulated response frequency): over 50
